# Patent US7772434B2, “Crystalline form of a β2 adrenergic receptor agonist” (Theravance, Inc., priority 2003, dated 2010)
# Where a name gives a salt, the structure may show the parent alone.
# Legend:
# [1] = Solid state stability testing (storage at elevated temperature and humidity); format: physicochemical
# Protocol: Samples (250 mg each) of the monoHCl salt of Examples 9 and 10 were stored at 40° C. and 75% relative humidity in open containers and in closed containers. Additional samples (100 mg each) of the monoHCl salt were stored at 50° C. in closed containers. […] Water percentage of the samples stored at 40° C. was less than 0.25% after two and four weeks of storage.
# The differential scanning calorimetry trace of Example 14, shown in FIG. 2 was obtained with a TA instruments model DSC2010. Samples were placed in sealed aluminum pans for analysis with an empty pan serving as the reference. Samples were equilibrated at 30° C. and heated at 5° C. per minute to a temperature of 300° C. The instrument was calibrated with an indium standard.
# Thermogravimetric analysis was conducted using a TA instruments model Q50. Samples were weighed in aluminum pans and heated from 50° C. to 300° C. at a rate of 10° C./min.
# HPLC analysis was conducted using a MAC MOD Ace-5, C18, 25 cm×4.6 mm, 5 μm column, equilibrated at 30° C. The mobile phases used were: A: 0.1% TFA in 98:2 water:acetonitrile; and B: 0.1% TFA in 10:90 water:acetonitrile. Detection was by UV absorbance at 244 nm. The initial condition was 6% phase B. A flow rate of 1.0 mL/min and gradients of 6 to 30% B over 25 min, 30% to 60% B in 10 min and 60% to 100% B in 2 min were utilized. The monoHCl salt of compound 1 gave a retention time of 19.1 min.
# Water content was determined by coulometric Karl Fischer titration using a Brinkman Metrohm Karl Fischer Model 831 coulometer.
# [2] = Hygroscopicity / deliquescence on exposure to the atmosphere at high relative humidity; format: physicochemical; conditions: exposed to the atmosphere for prolonged periods at high relative humidity
# [3] = all storage conditions: 40° C. and 75% relative humidity in open and closed containers, 50° C. in closed containers, after four weeks
smiles,measurement,setting,value
"O=CNc1cc([C@@H](O)CNCCc2ccc(NC[C@H](O)c3ccccc3)cc2)ccc1O [monohydrochloride salt of compound 1, N-{2-[4-((R)-2-hydroxy-2-phenylethylamino)phenyl]ethyl}-(R)-2-hydroxy-2-(3-formamido-4-hydroxyphenyl)ethylamine monohydrochloride]",analysis by DSC and TGA,[1]; [3],no detectable differneces
same,change in the appearance of the material,[1]; [3],no observable change
same,"chemical degradation, analysis by HPLC",[1]; [3],no detectable chemical degradation
same,thermal stability,[1]; at elevated temperatures,thermally stable
same,analysis by DSC,[1]; four weeks at 40° C. and 75% humidity in open and closed containers and at 50° C. in a closed container,no detectable difference
same,"chemical degradation, analysis by HPLC","[1]; four weeks at 40° C. and 75% humidity in open and closed containers and at 50° C. in a closed container, summary statement",no appreciable chemical degradation
same,Water percentage of the samples,"[1]; samples stored at 40° C. (75% relative humidity), after two and four weeks of storage, Karl Fischer",less than 0.25%
same,hygroscopicity / deliquescence,[2],neither hygroscopic nor deliquescent
